This passage reports IC50 results from US8497269B2, “Phthalazine compounds as p38 map kinase modulators and methods of use thereof” (Amgen Inc., priority 2008, dated 2013).

Test [1] deals with TNF-α induced IL-8 production in human whole blood. The test can be described thus: Inhibition of TNF-α induced IL-8 in 50% human whole blood. The format is cell-based. To be noted: 1 nM TNF-α, secreted IL-8, 16-18 hours, read-out: WB TNF/IL8 IC50. As for the experimental part:
Inhibition of TNF-α Induced IL-8 in 50% Human Whole Blood
Test compounds were evaluated in vitro for the ability to inhibit the production of secreted IL-8 by whole blood activated with TNF-α. Fresh human whole blood was obtained from healthy, non-medicated volunteers in sodium heparin tubes.
Compound Dilution—Assay Procedure
Test compounds are serially diluted 1:3 in DMSO and then diluted 1:250 into R10 (RPMI 1640, 10% human serum AB, 1× pen/strep/glutamine) to the 4× working concentration to be used in the assay. 100 ul heparinized whole blood is plated into wells of 96 well flat bottom plates. 50 ul of either 4× compound or DMSO control (Final DMSO concentration is 0.1%) are added to the appropriate wells. Plates are incubated for 1 hour at 37 degrees Celsius. 50 ul of 4×TNF-α (4 nM TNF-α, for a final concentration of 1 nM) or control (media alone) is added to the appropriate wells (Total volume=200 ul). Plates are incubated overnight (16-18 hours). 100 ul of supernatant is collected and stored in 96-well round bottom polypropylene plates at −80 degrees Celsius or assayed immediately for IL-8.
Cytokines are measured on antibody (Ab) sandwich ECL based 96-well detection plates. 20 ul of supernatant are added to plate and plate is sealed and shaken at RT for 1 hour. 130 ul of detection Ab cocktail is added and plates are sealed and shaken for 1 hour in the dark at RT. Plates are read on MSD Sector HTS instrument. Data are analyzed and IC50 values generated using Activity Base and Xl-fit programs.

The target in a further test is human p38α (Homo sapiens, UniProt Q16539). The test can be described thus: Purified and activated recombinant human p38α assay (HTRF). To be noted: 1 nM p38α, 50 μM ATP, 100 nM GST-ATF2-Avitag, 1 hour at RT, read-out: p38a IC50 IC50. It counts as biochemical. As for the experimental part: Purified and Activated Recombinant Human p38α Assay
Kinase Reaction Buffer: Kinase reaction buffer for p38α HTRF assays consists of 50 mM Tris-pH 7.5, 5 mM MgCl2, 0.1 mg/mL BSA, 100 μM Na3VO4 and 0.5 mM DTT.
HTRF Detection Buffer: HTRF detection buffer contains 100 mM HEPES-pH 7.5, 100 mM NaCl, 0.1% BSA, 0.05% Tween-20, and 10 mM EDTA.
Serial Dilution of Compounds: Compounds were dissolved in 100% DMSO and serially diluted (3 fold, 10 point) in a polypropylene 96-well microtiter plate (drug plate). The final starting concentration of compounds in the p38α enzymatic assays was 1 μM. Columns 6 and 12 (HI controls and LO controls respectively) in the drug plate were reserved as controls and contained only DMSO. Kinase Reaction: The p38α kinase reactions were carried out in a polypropylene 96-well black round bottom assay plate in total volume of 30 μL kinase reaction buffer. Appropriate concentration of purified and activated enzyme (recombinant human) was mixed with indicated concentration of ATP and 100 nM GST-ATF2-Avitag, in the presence or absence (HI control) of Compound. See table below for actual concentrations. In the absence of substrate, the background was measured as LO control. The reaction was allowed to incubate for 1 hour at RT. Assay Reagent Concentrations: The final reagent concentrations were 1 nM p38α and 50 μM ATP. […] After 60 minutes incubation at room temperature, the assay plate was read in a Discovery Plate Reader. The wells were excited with coherent 320 nm light and the ratio of delayed ([…] post excitation) emissions at […] (native europium fluorescence) and 665 nm (europium fluorescence transferred to allophycocyanin—an index of substrate phosphorylation) was determined (Park et al, 1999). Data Analysis: The proportion of substrate phosphorylated in the kinase reaction in the presence of compound compared with that phosphorylated in the presence of DMSO vehicle alone (HI control) was calculated using the formula: % control (POC)=(compound−average LO)/(average HI−average LO)*100. Data (consisting of POC and inhibitor concentration in μM) was fitted to a 4-parameter equation (y=A+((B−A)/(1+((x/C)^D))), where A is the minimum y (POC) value, B is the maximum y (POC), C is the x (compound concentration) at the point of inflection and D is the slope factor, using a Levenburg-Marquardt non-linear regression algorithm.
The inhibition constant (Ki) of the inhibitor was estimated from the IC50 (compound concentration at the point of inflection C) using the Cheng-Prussof equation: Ki=IC50/(1+S/Km), where S is the ATP substrate concentration, and Km is the Michaelis constant for ATP as determined experimentally. All results were expressed as the mean±the standard error of the mean. Data acquisition and non-linear regression algorithms were performed using Activity Base v5.2 and XL-fit software v4.1 respectively. All data was archived using Activity Base v5.2 software.

Sequence of human p38α (Q16539 whole entry): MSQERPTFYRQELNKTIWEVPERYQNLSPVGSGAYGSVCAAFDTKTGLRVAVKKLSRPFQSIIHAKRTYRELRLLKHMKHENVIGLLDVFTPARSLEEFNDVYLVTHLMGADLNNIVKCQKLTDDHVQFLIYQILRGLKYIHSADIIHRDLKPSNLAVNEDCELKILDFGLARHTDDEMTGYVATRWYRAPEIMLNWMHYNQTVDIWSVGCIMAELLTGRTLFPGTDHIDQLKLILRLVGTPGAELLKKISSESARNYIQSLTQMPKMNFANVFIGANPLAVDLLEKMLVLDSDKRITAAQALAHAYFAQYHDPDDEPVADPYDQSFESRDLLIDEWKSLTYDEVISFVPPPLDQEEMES

`Cc1cc(S(C)(=O)=O)c(Cl)cc1-c1nncc2cc(Nc3ccc(F)cc3F)ccc12` [Example 26, 1-(5-chloro-2-methyl-4-(methylsulfonyl)phenyl)-N-(2,4-difluorophenyl)-6-phthalazinamine]: the IC50 came out at 4.2 nM in test [1] and 0.7 nM at human p38α.
As for `Cc1cc(F)ccc1-c1nncc2cc(Nc3ccccc3)ccc12` [Example 27, 1-(4-fluoro-2-methylphenyl)-N-phenyl-6-phthalazinamine], the IC50 in test [1] is 2.7 nM; on human p38α it was 0.7 nM.
Consider `COc1ncccc1-c1nncc2cc(Nc3ccc(F)cc3)ccc12` [Example 28, N-(4-fluorophenyl)-1-(2-(methyloxy)-3-pyridinyl)-6-phthalazinamine], for which the IC50 in test [1] was 1.6 nM; at human p38α, 0.9 nM.
The matching figures for `Cc1ncccc1-c1nncc2cc(Nc3ccc(F)cc3)ccc12` [Example 29, N-(4-fluorophenyl)-1-(2-methyl-3-pyridinyl)-6-phthalazinamine]: 1.8 nM and 0.7 nM.
As for `Cc1noc(C)c1-c1nncc2cc(Nc3ccc(F)cc3)ccc12` [Example 30, 1-(3,5-dimethyl-4-isoxazolyl)-N-(4-fluorophenyl)-6-phthalazinamine], the IC50 came to 4.9 nM in test [1] and 0.9 nM at human p38α.
The matching figures for `Fc1ccc(Nc2ccc3c(-c4ccccc4Cl)nncc3c2)cc1` [Example 31, 1-(2-chlorophenyl)-N-(4-fluorophenyl)-6-phthalazinamine]: 1.7 nM and 0.7 nM.
In the case of `Cn1nccc1-c1nncc2cc(Nc3ccc(F)cc3)ccc12` [Example 32, N-(4-fluorophenyl)-1-(1-methyl-1H-pyrazol-5-yl)-6-phthalazinamine], the IC50 in test [1] was determined as 4.9 nM; at human p38α, 1 nM.
The matching figures for `Cc1cc(S(C)(=O)=O)ccc1-c1nncc2cc(Nc3ccc(F)cn3)ccc12` [Example 33, N-(5-fluoro-2-pyridinyl)-1-(2-methyl-4-(methylsulfonyl)phenyl)-6-phthalazinamine]: 20 nM and 0.8 nM.
For `c1ccc(Nc2ccc3c(N4CCOCC4)nncc3c2)cc1` [Example 34, 1-(4-morpholinyl)-N-phenyl-6-phthalazinamine] the same measures were 16 nM and 8 nM.
For “N-(4-fluorophenyl)-1-((2,2,2-trifluoro-1-methylethyl)oxy)-6-phthalazinamine [Example 23]” the same measures were 137 nM and 9.1 nM.
